According to US20060014723A1, “Anti-parasitic uses of borinic acid complexes” (priority 2004, published 2006):

Experiments:
P. Berghei = assay: In vivo efficacy mouse malaria model; conditions: 1×/day
Protocol: Test compounds will be compared to chloroquine, artemisinin, mefloquine as follows: NMRI mice, SPF, females, […]
From a donor mouse with approximately 30% parasitemia, heparinized blood is taken and diluted in physiological saline to 10^8 parasitized erythrocytes per mL. An aliquot of 0.2 mL (=2×10^7 parasitized erythrocytes) of this suspension is injected intravenously (i.v.) into experimental groups of 4 mice.
Two-to-four hours post-infection, the experimental groups are treated with a single dose by the subcutaneous or the oral route. The compounds are prepared at an appropriate concentration, as a solution or suspension containing 3% ethanol and 7% Tween 80 or in SSV (standard suspending vehicle): […]
Twenty-four hours after the last treatment ([…]) blood smears from all animals are prepared and stained with Giemsa. Parasitemia is determined microscopically by counting 400 red blood cells (“rbcs”), for low parasitemias (<1%) up to 4,000 rbc's have to be counted. The difference between the mean value of the control group (taken as 100%) and those of the experimental groups is calculated and expressed as % Reduction where: [formula]
Additional smears will be taken on day 5 and day 6; and parasitemia will be determined and the activity calculated. Survival time (in days) is recorded, and the mean survival time is calculated. Adverse effects are recorded. Four mice/compound and a minimum of 12 mice/study (vehicle and positive controls run concurrently) are used.

[1] = test system: Leishmania donovani strain MHOM/ET1671L82; assay: Leishmaniasis in vitro screening model (axenic amastigotes, Alamar Blue); type: cell-based
In short: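 Axenic L. donovani amastigotes (10^5 per well) from hamster spleen, grown at 37° C in SM medium pH 5.4 with 10% FBS, 5% CO2, exposed to serial 3-fold compound dilutions (30 to 0.041 μg/mL) for 72 h. Alamar Blue added for 2 h, fluorescence read (ex 536/em 588 nm); IC50 from sigmoidal curve versus control cultures.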

P. falciparum K1 = assay: Malaria in vitro screening model (3H-hypoxanthine incorporation); type: cell-based, Plasmodium falciparum
In short: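 Chloroquine/pyrimethamine-resistant P. falciparum K1 in human A+ erythrocytes (0.15% parasitemia, 2.5% hematocrit) was exposed to seven 2-fold compound dilutions in hypoxanthine-free medium at 37 °C, low O2. After 48 h, 0.5 μCi ³H-hypoxanthine was added for 24 h more. IC50 was taken from sigmoidal curves as % of untreated control.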

[2] = test system: T. b. rhodesiense STIB 900; assay: African sleeping sickness in vitro screening model (Alamar Blue); type: cell-based, Trypanosoma brucei rhodesiense
In short: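 Bloodstream-form trypomastigotes, 8×10^3/well, were grown in supplemented MEM with 15% horse serum, without hypoxanthine, at 37 °C in 5% CO2. They were exposed for 72 h to seven 3-fold dilutions from 90 to 0.123 μg/mL. Resazurin (Alamar Blue) was added for 2 h, fluorescence read at ex 536/em 588 nm, and IC50 taken as the mean of four values.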

[3] = test system: Trypanosoma cruzi Tulahuen C2C4 strain; assay: Chagas disease in vitro screening model (beta-galactosidase strain in L-6 cells); type: cell-based
In short: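 L-6 rat myoblasts in RPMI 1640/10% FBS at 37 °C were infected with 5×10^3 lacZ-expressing T. cruzi Tulahuen C2C4 trypomastigotes. CPRG/Nonidet substrate was read at 540 nm, and IC50 came from sigmoidal curves.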

Compound	% of Activity (P. Berghei; 4 × 30 mg/kg, s.c.) [%]	Mean Survival (P. Berghei; 4 × 30 mg/kg, s.c.) [days]	Parasitized RBC over 100 % of Control (P. Berghei; 4 × 30 mg/kg, s.c.) [%]	Parasitized RBC over 100 Mean (P. Berghei; 4 × 30 mg/kg, s.c.)	% of Activity (P. Berghei; 4 × 100 mg/kg, p.o.) [%]	Mean Survival (P. Berghei; 4 × 100 mg/kg, p.o.) [days]	Parasitized RBC over 100 % of Control (P. Berghei; 4 × 100 mg/kg, p.o.) [%]	Parasitized RBC over 100 Mean (P. Berghei; 4 × 100 mg/kg, p.o.)	L. donovani IC50 [1] [µg/mL]	P. falciparum IC50 (P. falciparum K1) [µg/mL]	T. b. rhodesiense IC50 [2] [µg/mL]	T. cruzi IC50 [3] [µg/mL]
Fc1cccc(B(Oc2cccc3cccnc23)c2ccc(Cl)cc2)c1 [Compound 11, (4-Chlorophenyl)(3-fluorophenyl) borinic acid quinolin-8-yl ester]	42.46	19.7	57.54	14.3	58.22	15.0	41.78	10.4				
C=CB(Oc1cccc2cccnc12)c1cccc(C2=NC(C)(C)CO2)c1 [Compound 93]									0.55	3.034	0.32	3.65
N#Cc1cccc(B(Oc2cccc3cccnc23)c2ccc(F)cc2F)c1 [Compound 96]									0.63	3.035	0.34	3.3
N#Cc1ccc(B(Oc2cccc3cccnc23)c2ccc(F)c(F)c2)cc1 [Compound 97]									0.58	4.036	0.37	3.45
N#Cc1ccc(B(Oc2cccc3cccnc23)c2ccc(F)cc2F)cc1 [Compound 98]									0.59	3.245	0.345	4.05
CS(=O)(=O)Nc1ccc(B(Oc2cccc3cccnc23)c2cccc(Cl)c2)cc1 [Compound 108]									0.59	2.417	0.305	4.95
Fc1cccc(B(Oc2cccc3cccnc23)c2ccc(Cl)c(C(F)(F)F)c2)c1 [Compound 115]									0.59	3.077	0.465	3.6
C=CB(Oc1cccc2cccnc12)c1ccc(F)c(Cl)c1 [Compound 116]									>30	3.95	0.5865	3.65
CN(C)Cc1ccc(B(Oc2cccc3cccnc23)c2cc(F)cc(C(F)(F)F)c2)cc1 [Compound 120]									0.44	2.794	0.42	4.9
N#Cc1ccc(B(Oc2cccc3cccnc23)c2cc(F)cc(C(F)(F)F)c2)cc1 [Compound 122]									0.45	4.577	0.4	4.55
Fc1cc(B(Oc2cccc3cccnc23)c2cccc(Cl)c2)cc(C(F)(F)F)c1 [Compound 123]									0.54	3.51	0.31	4
CN(C)Cc1ccc(B(Oc2cccc3cccnc23)c2ccc(C#N)cc2)cc1 [Compound 125]									0.38	4.973	0.5	4.9
CN(C)Cc1ccc(B(Oc2cccc3cccnc23)c2cccc(C3=NC(C)(C)CO3)c2)cc1 [Compound 126]									0.45	4.746	0.595	5.05
Nc1cccc(C(=O)OB(c2ccc(Cl)cc2)c2ccc(Cl)cc2)n1 [Compound 131]									0.24	0.6855	7.6	0.0535
